In US20090253718A1, “Pharmaceutical Compounds” (Astex Therapeutics Limited, priority 2006, published 2009):

Key:
ROCK-II (h) = ROCK-II (h) (Homo sapiens, UniProt O75116); assay: ROCK-II (h) radiometric kinase assay; assay type: biochemical; conditions: read-out: IC50 anti-ROCK-II activity
Protocol: In a final reaction volume of 25 μl, ROCK-II (h) (5-10 mU) is incubated with 50 mM Tris pH 7.5, 0.1 mM EGTA, 30 μM […], 10 mM MgAcetate and [γ-^33P-ATP] (specific activity approx. 500 cpm/pmol, concentration as required). The reaction is initiated by the addition of the MgATP mix. After incubation for 40 minutes at room temperature, the reaction is stopped by the addition of 5 μl of a 3% phosphoric acid solution. 10 μl of the reaction is then spotted onto a P30 filtermat and washed three times for 5 minutes in 75 mM phosphoric acid and once in methanol prior to drying and scintillation counting.
The compound of example 29 was tested for anti-ROCK-II activity (assay as described above): […]

rat MM1 hepatoma cells = conditions: cited from earlier work
[1] = system: isolated rabbit urinary bladder smooth muscle; conditions: cited from earlier work
MM1 cells = conditions: continuous delivery using osmotic pumps, syngeneic rats; cited from earlier work

ROCK-II (h), sequence (O75116 whole entry): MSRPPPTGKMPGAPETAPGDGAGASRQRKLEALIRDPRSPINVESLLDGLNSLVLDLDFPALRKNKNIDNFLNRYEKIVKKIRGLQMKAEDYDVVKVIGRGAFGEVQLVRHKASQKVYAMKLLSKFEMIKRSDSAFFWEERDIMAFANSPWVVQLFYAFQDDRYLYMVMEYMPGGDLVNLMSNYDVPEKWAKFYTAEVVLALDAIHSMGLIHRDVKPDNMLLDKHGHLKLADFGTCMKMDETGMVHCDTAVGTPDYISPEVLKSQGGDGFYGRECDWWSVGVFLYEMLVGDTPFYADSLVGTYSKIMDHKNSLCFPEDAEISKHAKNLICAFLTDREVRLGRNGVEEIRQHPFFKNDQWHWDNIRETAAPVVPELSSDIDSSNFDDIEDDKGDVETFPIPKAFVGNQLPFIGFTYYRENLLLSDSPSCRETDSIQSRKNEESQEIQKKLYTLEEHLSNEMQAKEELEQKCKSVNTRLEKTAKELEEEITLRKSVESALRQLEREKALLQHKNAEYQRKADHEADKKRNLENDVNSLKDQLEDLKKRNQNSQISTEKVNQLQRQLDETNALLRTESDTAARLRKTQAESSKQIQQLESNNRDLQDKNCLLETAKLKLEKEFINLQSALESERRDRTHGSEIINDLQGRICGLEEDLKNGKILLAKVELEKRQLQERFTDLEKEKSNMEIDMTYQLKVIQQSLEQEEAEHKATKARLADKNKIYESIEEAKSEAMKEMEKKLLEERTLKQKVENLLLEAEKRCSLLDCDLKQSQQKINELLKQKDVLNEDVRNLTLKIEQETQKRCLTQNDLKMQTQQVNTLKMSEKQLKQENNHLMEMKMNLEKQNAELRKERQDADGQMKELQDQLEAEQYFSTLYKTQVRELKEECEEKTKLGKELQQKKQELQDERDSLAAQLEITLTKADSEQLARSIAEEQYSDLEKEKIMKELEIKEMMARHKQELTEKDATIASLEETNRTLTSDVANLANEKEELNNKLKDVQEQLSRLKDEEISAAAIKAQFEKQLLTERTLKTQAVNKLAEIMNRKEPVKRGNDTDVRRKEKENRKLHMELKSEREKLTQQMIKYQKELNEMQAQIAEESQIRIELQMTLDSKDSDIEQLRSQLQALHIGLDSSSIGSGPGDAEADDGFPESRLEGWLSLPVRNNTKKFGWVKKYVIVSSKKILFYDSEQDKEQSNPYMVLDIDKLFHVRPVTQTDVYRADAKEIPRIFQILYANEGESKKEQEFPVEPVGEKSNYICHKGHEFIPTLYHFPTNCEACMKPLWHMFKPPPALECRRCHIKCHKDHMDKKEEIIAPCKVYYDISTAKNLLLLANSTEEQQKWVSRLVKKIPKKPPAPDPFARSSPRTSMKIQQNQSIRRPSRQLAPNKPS

IC50 (ROCK-II (h))	SMILES	Rho-mediated activation of actomyosin (rat MM1 hepatoma cells)	invasive activity (rat MM1 hepatoma cells)	bethanechol-evoked contractions [1]	dissemination of MM1 cells (MM1 cells)
< 100 nM	NC(c1ccc(Cl)cc1)C1CCN(c2ccnc3[nH]ccc23)CC1 (centres unmarked) [Example 29, C-(4-Chlorophenyl)-C-[1-(1H-pyrrolo[2,3-b]pyridin-4-yl)piperidin-4-yl]methylamine]				
	C[C@@H](N)[C@H]1CC[C@H](C(=O)Nc2ccncc2)CC1 [Example Y-27632]	blocked	blocked	attenuates	considerably reduced
